The source of these data is patent US9695192B2, “Fused heterocyclic compounds as ion channel modulators” (GILEAD SCIENCES, INC., priority 2011, dated 2017).

The target of this assay is wild-type human cardiac sodium channel, hNav1.5 (Homo sapiens, UniProt Q14524). In words: Late INa screening assay (QPatch whole cell patch clamp, tefluthrin-enhanced late sodium current). Type of assay: cell-based. To be noted: HEK293 hNav1.5, late INa activated with 10 μM Tefluthrin. On the procedure: The late sodium current (Late INa) and peak sodium current (Peak INa) assays are performed on an automated electrophysiology platform, QPatch 16X (Sophion Bioscience, Copenhagen, Denmark), which uses the whole cell patch clamp technique to measure currents through the cell membrane of up to 16 cells at a time. The assay uses an HEK293 (human embryonic kidney) cell line heterologously expressing the wild-type human cardiac sodium channel, hNav1.5, purchased from Millipore (Billerica, Mass.). No beta subunits were coexpressed with the Na channel alpha subunit. Cells are maintained with standard tissue culture procedures and stable channel expression is maintained with 400 μg/mL Geneticin in the culture medium. Cells isolated for use on QPatch are incubated for 5 minutes in Detachin 1X (Genlantis, San Diego, USA) at 37° C. to ensure that 80-90% of the cells are single and not part of a cell cluster. Experiments are carried out at 23-25° C.
Sequence of wild-type human cardiac sodium channel, hNav1.5 (Q14524 whole entry): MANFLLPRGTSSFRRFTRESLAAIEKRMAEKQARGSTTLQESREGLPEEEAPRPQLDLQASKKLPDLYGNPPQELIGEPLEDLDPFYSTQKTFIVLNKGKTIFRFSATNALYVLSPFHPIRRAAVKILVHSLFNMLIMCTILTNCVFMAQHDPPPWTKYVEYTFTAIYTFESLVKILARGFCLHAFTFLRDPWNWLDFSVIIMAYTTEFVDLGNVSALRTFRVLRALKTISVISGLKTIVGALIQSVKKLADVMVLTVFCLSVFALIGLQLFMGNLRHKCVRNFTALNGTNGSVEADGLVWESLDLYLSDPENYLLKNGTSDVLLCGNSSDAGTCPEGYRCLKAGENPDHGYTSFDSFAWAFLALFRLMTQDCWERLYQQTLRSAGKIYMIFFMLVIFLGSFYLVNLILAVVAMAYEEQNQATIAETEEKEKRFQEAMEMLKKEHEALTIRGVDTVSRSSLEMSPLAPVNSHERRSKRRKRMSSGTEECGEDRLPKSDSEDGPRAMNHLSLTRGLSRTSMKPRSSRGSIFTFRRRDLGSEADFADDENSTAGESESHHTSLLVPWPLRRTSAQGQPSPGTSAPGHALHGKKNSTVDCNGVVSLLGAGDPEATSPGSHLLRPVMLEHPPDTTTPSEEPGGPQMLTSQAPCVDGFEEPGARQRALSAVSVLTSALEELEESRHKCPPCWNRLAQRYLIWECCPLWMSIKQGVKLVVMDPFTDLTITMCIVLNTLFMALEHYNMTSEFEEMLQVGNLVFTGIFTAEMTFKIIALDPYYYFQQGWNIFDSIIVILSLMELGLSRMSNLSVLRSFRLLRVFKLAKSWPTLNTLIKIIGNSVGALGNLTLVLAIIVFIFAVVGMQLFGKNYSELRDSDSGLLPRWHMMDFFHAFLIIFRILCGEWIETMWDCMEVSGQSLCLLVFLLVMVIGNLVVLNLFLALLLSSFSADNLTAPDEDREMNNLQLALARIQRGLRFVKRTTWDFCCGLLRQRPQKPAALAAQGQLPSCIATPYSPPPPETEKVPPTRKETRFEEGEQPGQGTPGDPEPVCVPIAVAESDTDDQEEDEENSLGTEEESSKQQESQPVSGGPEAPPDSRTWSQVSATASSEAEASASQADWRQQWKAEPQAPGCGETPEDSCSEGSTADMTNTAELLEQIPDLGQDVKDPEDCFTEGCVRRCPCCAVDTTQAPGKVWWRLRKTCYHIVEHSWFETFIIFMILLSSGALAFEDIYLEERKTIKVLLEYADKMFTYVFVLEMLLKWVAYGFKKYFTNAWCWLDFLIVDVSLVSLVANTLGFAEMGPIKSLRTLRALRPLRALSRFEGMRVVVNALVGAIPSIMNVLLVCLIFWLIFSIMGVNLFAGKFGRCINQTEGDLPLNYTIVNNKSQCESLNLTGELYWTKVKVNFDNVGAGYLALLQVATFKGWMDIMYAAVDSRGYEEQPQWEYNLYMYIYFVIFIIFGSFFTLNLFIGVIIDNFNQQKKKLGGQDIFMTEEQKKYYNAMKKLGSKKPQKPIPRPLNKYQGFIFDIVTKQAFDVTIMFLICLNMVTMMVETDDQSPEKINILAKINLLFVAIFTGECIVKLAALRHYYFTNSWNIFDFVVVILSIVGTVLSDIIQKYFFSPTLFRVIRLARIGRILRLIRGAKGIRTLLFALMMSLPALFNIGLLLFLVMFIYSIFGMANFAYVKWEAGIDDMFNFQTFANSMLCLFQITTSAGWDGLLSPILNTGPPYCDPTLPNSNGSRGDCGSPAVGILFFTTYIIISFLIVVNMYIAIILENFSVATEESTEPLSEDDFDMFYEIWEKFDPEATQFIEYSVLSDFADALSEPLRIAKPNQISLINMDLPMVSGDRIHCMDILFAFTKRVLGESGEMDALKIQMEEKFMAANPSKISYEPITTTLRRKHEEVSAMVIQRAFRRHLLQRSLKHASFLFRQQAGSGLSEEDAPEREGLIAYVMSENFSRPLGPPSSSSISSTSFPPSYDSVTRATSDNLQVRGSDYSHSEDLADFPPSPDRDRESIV
For both the Late INa and Peak INa assays, series resistance compensation is set to 100% and series resistance and whole-cell compensation are performed automatically. Currents are digitized at 25 kHz and low-pass filtered at 12 kHz and 10 kHz for the late and peak INa assays, respectively. Currents through open sodium channels are automatically recorded and stored in the Sophion Bioscience Oracle database (Sophion Bioscience, Copenhagen, Denmark). Analysis is performed using QPatch Assay and database software and data are compiled in Excel.
Compound stocks are routinely made by the Gilead Sample Bank in plastic vials to 10 mM in dimethyl sulfoxide (DMSO). In some cases, when compounds are not soluble in DMSO, they are made in 100% ethanol. Stocks are sonicated as necessary. The extracellular solution for screening Late INa is composed of: 140 mM NaCl, 4 mM KCl, 1.8 mM CaCl2, 0.75 mM MgCl2 and 5 mM HEPES with pH adjusted to 7.4 using NaOH. The intracellular solution used to perfuse the inside of the cells for both the Late INa and Peak INa assays contains: 120 mM CsF, 20 mM CsCl, 5 mM EGTA, 5 mM HEPES and pH adjusted to 7.4 with CsOH. Compounds are diluted in extracellular solution to 1 μM in glass vials and then transferred to glass well plates before robotic addition to the cells. A 0 mM Na extracellular solution (0 Na-ECF) is used at the end of each experiment for the Late INa and Peak INa assays to measure baseline current contains: 140 mM N-methyl-D-glucamine; 4 mM KCl; 1.8 mM CaCl2; 0.75 mM MgCl2; 5 mM HEPES and pH was adjusted to 7.4 with HCl.
For the hNav1.5 Late INa assay, sodium channels are activated every 10 seconds (0.1 Hz) by depolarizing the cell membrane to −20 mV for 250 milliseconds (ms) from a holding potential of −120 mV. In response to a −20 mV voltage step, typical hNav1.5 sodium currents activate rapidly to a peak negative current and then inactivate nearly completely within 3-4 ms.
Compounds were tested to determine their activity in blocking the late sodium current. Late INa was generated by adding 10 μM Tefluthrin (pyrethroid) to the extracellular solution while recording Na currents. To confirm the block of late INa observed using the automated screening method, a second late INa enhancer (ATX-II) and the manual patch clamp method were used. ATX-II and tefluthrin occupy distinct, non-overlapping binding sites and modify Na^+ channel function differently to increase late INa. Compounds tested have been found generally to inhibit the enhanced late INa caused by either late INa enhancer. For the purposes of the screening, late INa is defined as the mean current between 225 ms and 250 ms after stepping to −20 mV to activate Na channels. After establishing the whole cell recording configuration, late INa activator is added to each well 4 times over a 16-17 minute period so that the late component of the Na current reaches a stable value. Compounds were then added (typically at 1 μM), in the presence of the late INa activator, with 3 additions over the course of 7 or 8 minutes. […]
On the technique in general: The patch-clamp technique gives a direct electrical read-out from membranes.
As to `FC(F)(F)c1ccc(-c2ccc3c(c2)-c2nncn2CCO3)cc1` [Compound I-3, 10-(4-(trifluoromethyl)phenyl)-5,6-dihydrobenzo[f][1,2,4]triazolo[4,3-d][1,4]oxazepine], the inhibition at 1 µM came to 13%. Then `Cc1nnc2n1CCOc1ccc(-c3ccc(C(F)(F)F)cc3)cc1-2` [Compound I-4, 3-methyl-10-(4-(trifluoromethyl)phenyl)-5,6-dihydrobenzo[f][1,2,4]triazolo[4,3-d][1,4]oxazepine], with 10%. Take `FC(F)(F)c1ccc(-c2ccc3c(c2)-c2nnc(C4CC4)n2CCO3)cc1` [Compound I-5, 3-cyclopropyl-10-(4-(trifluoromethyl)phenyl)-5,6-dihydrobenzo[f][1,2,4]triazolo[4,3-d][1,4]oxazepine]: the inhibition at 1 µM worked out at 18%.

With `FC(F)(F)c1ccc(-c2ccc3c(c2)-c2ncc(-c4ncccn4)n2CCO3)cc1` [Compound I-7, 3-(pyrimidin-2-yl)-10-(4-(trifluoromethyl)phenyl)-5,6-dihydrobenzo[f]imidazo[1,2-d][1,4]oxazepine], the inhibition at 1 µM is 17%. Then `FC(F)(F)c1ccc(-c2ccc3c(c2)C2=NCCCN2CCO3)cc1` [Compound I-8, 11-(4-(trifluoromethyl)phenyl)-3,4,6,7-tetrahydro-2H-benzo[f]pyrimido[1,2-d][1,4]oxazepine], with 9%.

In the case of `CC(=O)c1cnc2n1CCOc1ccc(-c3ccc(C(F)(F)F)cc3)cc1-2` [Compound I-15, 1-(10-(4-(trifluoromethyl)phenyl)-5,6-dihydrobenzo[f]imidazo[1,2-d][1,4]oxazepin-3-yl)ethanone], the inhibition at 1 µM amounted to 12%. Take `N#Cc1cnc2n1CCOc1ccc(-c3ccc(C(F)(F)F)cc3)cc1-2` [Compound I-16, 10-(4-(trifluoromethyl)phenyl)-5,6-dihydrobenzo[f]imidazo[1,2-d][1,4]oxazepine-3-carbonitrile]: the inhibition at 1 µM was found to be 1%. The same measure for `Cc1cnc2n1CCOc1ccc(-c3ccc(OC(F)(F)F)cc3)cc1-2` [Compound I-17, 3-methyl-10-(4-(trifluoromethoxy)phenyl)-5,6-dihydrobenzo[f]imidazo[1,2-d][1,4]oxazepine]: 14%; for `FC(F)(F)Oc1ccc(-c2ccc3c(c2)-c2ncc(C4CC4)n2CCO3)cc1` [Compound I-18, 3-cyclopropyl-10-(4-(trifluoromethoxy)phenyl)-5,6-dihydrobenzo[f]imidazo[1,2-d][1,4]oxazepine]: 20%. Then `Cc1cn2c(n1)-c1cc(-c3ccc(C(F)(F)F)cc3)ccc1OCC2` [Compound I-19, 2-methyl-10-(4-(trifluoromethyl)phenyl)-5,6-dihydrobenzo[f]imidazo[1,2-d][1,4]oxazepine], with 13%. With `FC(F)(F)c1ccc(-c2ccc3c(c2)-c2nc(C4CC4)cn2CCO3)cc1` [Compound I-20, 2-cyclopropyl-10-(4-(trifluoromethyl)phenyl)-5,6-dihydrobenzo[f]imidazo[1,2-d][1,4]oxazepine], the inhibition at 1 µM worked out at 12%. Then `O=C(O)c1cn2c(n1)-c1cc(-c3ccc(C(F)(F)F)cc3)ccc1OCC2` [Compound I-22, 10-(4-(trifluoromethyl)phenyl)-5,6-dihydrobenzo[f]imidazo[1,2-d][1,4]oxazepine-2-carboxylic acid], with 5%; and `Cn1cncc1-c1cn2c(n1)-c1cc(-c3ccc(C(F)(F)F)cc3)ccc1OCC2` [Compound I-23, 2-(1-methyl-1H-imidazol-5-yl)-10-(4-(trifluoromethyl)phenyl)-5,6-dihydrobenzo[f]imidazo[1,2-d][1,4]oxazepine], with 3%. Then `FC(F)(F)c1ccc(-c2ccc3c(c2)C(N2CCOCC2)=NCCO3)cc1` [II-1, 5-morpholino-7-(4-(trifluoromethyl)phenyl)-2,3-dihydrobenzo[f][1,4]oxazepine], with 21%.

In general, inhibition refers to the drop in the measured response relative to a control, in per cent.
